Measurements: patent publication US12084472B2 (Ardelyx, Inc., priority 2015, dated 2024)

The compounds below were run against T1, human TGR5 (Homo sapiens, UniProt Q8TDU6) (assay: Cell-based TGR5 assay (cAMP generation, HTRF)). Conditions: HEK293 cells stably transfected with human TGR5; cAMP by HTRF; 30 minutes at 37° C.; read-out: pEC50 Human TGR5 (converted).
T1 construct: expressed in transfected cells; host or cells: HEK293
T1 sequence (Q8TDU6 1-330): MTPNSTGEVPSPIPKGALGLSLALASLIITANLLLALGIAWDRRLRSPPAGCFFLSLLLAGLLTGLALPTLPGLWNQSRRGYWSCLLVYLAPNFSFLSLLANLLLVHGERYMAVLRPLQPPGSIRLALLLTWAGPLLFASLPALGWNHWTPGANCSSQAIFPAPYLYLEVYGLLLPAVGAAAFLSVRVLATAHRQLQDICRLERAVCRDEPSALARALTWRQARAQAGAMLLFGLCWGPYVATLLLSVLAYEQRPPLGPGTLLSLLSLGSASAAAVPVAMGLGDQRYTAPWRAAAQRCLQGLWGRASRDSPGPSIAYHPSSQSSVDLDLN
Method in brief: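 First, compounds in 3-fold serial dilution were placed in HBSS with 10 mM HEPES pH 7.4 and 0.5 mM IBMX. Next, human TGR5-expressing HEK293 cells were added and incubated 30 min at 37° C. Finally, cAMP was detected by HTRF and pEC50 derived by logistic fitting.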

| SMILES | EC50 [nM] |
| --- | --- |
| Cc1ccc(SCCCCC(=O)N(C)C[C@H](O)[C@@H](O)[C@H](O)[C@H](O)CO)nc1COC1(c2cnccc2-c2ccccc2OC2CC2)CC1 [Compound I-658, 5-{[6-({1-[4-(2-cyclopropoxyphenyl)pyridin-3-yl]cyclopropoxy}methyl)-5-methylpyridin-2-yl]sulfanyl}-N-methyl-N-[(2S,3R,4R,5R)-2,3,4,5,6-pentahydroxyhexyl]pentanamide] | 1260 to 10000 |
| CCN(C[C@H](O)[C@@H](O)[C@H](O)[C@H](O)CO)C(=O)CCCSc1ccc(Cl)c(COC2(c3cnccc3-c3ccccc3OC3CC3)CC2)c1 [Compound I-659, 4-{[4-chloro-3-({1-[4-(2-cyclopropoxyphenyl)pyridin-3-yl]cyclopropoxy}methyl)phenyl]sulfanyl}-N-ethyl-N-[(2S,3R,4R,5R)-2,3,4,5,6-pentahydroxyhexyl]butanamide] | < 100 |
| O=C(CCCSc1ccc(Cl)c(COC2(c3cnccc3-c3ccccc3OC3CC3)CC2)c1)N(CCO)C[C@H](O)[C@@H](O)[C@H](O)[C@H](O)CO [Compound I-660, 4-{[4-chloro-3-({1-[4-(2-cyclopropoxyphenyl)pyridin-3-yl]cyclopropoxy}methyl)phenyl]sulfanyl}-N-(2-hydroxyethyl)-N-[(2S,3R,4R,5R)-2,3,4,5,6-pentahydroxyhexyl]butanamide] | 126 to 1000 |
| O=C(CCCSc1ccc(Cl)c(COC2(c3cnccc3-c3ccccc3OC3CC3)CC2)c1)N(CCCO)C[C@H](O)[C@@H](O)[C@H](O)[C@H](O)CO [Compound I-661, 4-{[4-chloro-3-({1-[4-(2-cyclopropoxyphenyl)pyridin-3-yl]cyclopropoxy}methyl)phenyl]sulfanyl}-N-(3-hydroxypropyl)-N-[(2S,3R,4R,5R)-2,3,4,5,6-pentahydroxyhexyl]butanamide] | < 100 |
| CN(C)CCN(C[C@H](O)[C@@H](O)[C@H](O)[C@H](O)CO)C(=O)CCCSc1ccc(Cl)c(COC2(c3cnccc3-c3ccccc3OC3CC3)CC2)c1 [Compound I-662, 4-{[4-chloro-3-({1-[4-(2-cyclopropoxyphenyl)pyridin-3-yl]cyclopropoxy}methyl)phenyl]sulfanyl}-N-[2-(dimethylamino)ethyl]-N-[(2S,3R,4R,5R)-2,3,4,5,6-pentahydroxyhexyl]butanamide] | 126 to 1000 |
| NC(=O)CN(C[C@H](O)[C@@H](O)[C@H](O)[C@H](O)CO)C(=O)CCCSc1ccc(Cl)c(COC2(c3cnccc3-c3ccccc3OC3CC3)CC2)c1 [Compound I-663, N-(carbamoylmethyl)-4-{[4-chloro-3-({1-[4-(2-cyclopropoxyphenyl)pyridin-3-yl]cyclopropoxy}methyl)phenyl]sulfanyl}-N-[(2S,3R,4R,5R)-2,3,4,5,6-pentahydroxyhexyl]butanamide] | 126 to 1000 |
| COCCN(C[C@H](O)[C@@H](O)[C@H](O)[C@H](O)CO)C(=O)CCCSc1ccc(Cl)c(COC2(c3cnccc3-c3ccccc3OC3CC3)CC2)c1 [Compound I-664, 4-{[4-chloro-3-({1-[4-(2-cyclopropoxyphenyl)pyridin-3-yl]cyclopropoxy}methyl)phenyl]sulfanyl}-N-(2-methoxyethyl)-N-[(2S,3R,4R,5R)-2,3,4,5,6-pentahydroxyhexyl]butanamide] | < 100 |
| CS(=O)(=O)CCN(C[C@H](O)[C@@H](O)[C@H](O)[C@H](O)CO)C(=O)CCCSc1ccc(Cl)c(COC2(c3cnccc3-c3ccccc3OC3CC3)CC2)c1 [Compound I-665, 4-{[4-chloro-3-({1-[4-(2-cyclopropoxyphenyl)pyridin-3-yl]cyclopropoxy}methyl)phenyl]sulfanyl}-N-(2-methanesulfonylethyl)-N-[(2S,3R,4R,5R)-2,3,4,5,6-pentahydroxyhexyl]butanamide] | 126 to 1000 |
| CCCN(C[C@H](O)[C@@H](O)[C@H](O)[C@H](O)CO)C(=O)CCCSc1ccc(Cl)c(COC2(c3cnccc3-c3ccccc3OC3CC3)CC2)c1 [Compound I-666, 4-{[4-chloro-3-({1-[4-(2-cyclopropoxyphenyl)pyridin-3-yl]cyclopropoxy}methyl)phenyl]sulfanyl}-N-[(2S,3R,4R,5R)-2,3,4,5,6-pentahydroxyhexyl]-N-propylbutanamide] | < 100 |
| O=C(CCCSc1ccc(Cl)c(COC2(c3cnccc3-c3ccccc3OC3CC3)CC2)c1)N(Cc1ccccc1)C[C@H](O)[C@@H](O)[C@H](O)[C@H](O)CO [Compound I-667, N-benzyl-4-{[4-chloro-3-({1-[4-(2-cyclopropoxyphenyl)pyridin-3-yl]cyclopropoxy}methyl)phenyl]sulfanyl}-N-[(2S,3R,4R,5R)-2,3,4,5,6-pentahydroxyhexyl]butanamide] | 126 to 1000 |
| CC(C)N(C[C@H](O)[C@@H](O)[C@H](O)[C@H](O)CO)C(=O)CCCSc1ccc(Cl)c(COC2(c3cnccc3-c3ccccc3OC3CC3)CC2)c1 [Compound I-668, 4-{[4-chloro-3-({1-[4-(2-cyclopropoxyphenyl)pyridin-3-yl]cyclopropoxy}methyl)phenyl]sulfanyl}-N-[(2S,3R,4R,5R)-2,3,4,5,6-pentahydroxyhexyl]-N-(propan-2-yl)butanamide] | < 100 |
| O=C(CCCSc1ccc(Cl)c(COC2(c3cnccc3-c3ccccc3OC3CC3)CC2)c1)N(C[C@H](O)[C@@H](O)[C@H](O)[C@H](O)CO)C1CCOCC1 [Compound I-669, 4-{[4-chloro-3-({1-[4-(2-cyclopropoxyphenyl)pyridin-3-yl]cyclopropoxy}methyl)phenyl]sulfanyl}-N-(oxan-4-yl)-N-[(2S,3R,4R,5R)-2,3,4,5,6-pentahydroxyhexyl]butanamide] | 126 to 1000 |

Further lines, results first:

| EC50 [nM] | SMILES |
| --- | --- |
| 126 to 1000 | CNC(=O)CN(C[C@H](O)[C@@H](O)[C@H](O)[C@H](O)CO)C(=O)CCCSc1ccc(Cl)c(COC2(c3cnccc3-c3ccccc3OC3CC3)CC2)c1 [Compound I-670, 4-{[4-chloro-3-({1-[4-(2-cyclopropoxyphenyl)pyridin-3-yl]cyclopropoxy}methyl)phenyl]sulfanyl}-N-[(methylcarbamoyl)methyl]-N-[(2S,3R,4R,5R)-2,3,4,5,6-pentahydroxyhexyl]butanamide] |
| 126 to 1000 | CN(C)C(=O)CCN(C[C@H](O)[C@@H](O)[C@H](O)[C@H](O)CO)C(=O)CCCSc1ccc(Cl)c(COC2(c3cnccc3-c3ccccc3OC3CC3)CC2)c1 [Compound I-671, 4-{[4-chloro-3-({1-[4-(2-cyclopropoxyphenyl)pyridin-3-yl]cyclopropoxy}methyl)phenyl]sulfanyl}-N-[2-(dimethylcarbamoyl)ethyl]-N-[(2S,3R,4R,5R)-2,3,4,5,6-pentahydroxyhexyl]butanamide] |
| 126 to 1000 | CCNC(=O)CCN(C[C@H](O)[C@@H](O)[C@H](O)[C@H](O)CO)C(=O)CCCSc1ccc(Cl)c(COC2(c3cnccc3-c3ccccc3OC3CC3)CC2)c1 [Compound I-672, 4-{[4-chloro-3-({1-[4-(2-cyclopropoxyphenyl)pyridin-3-yl]cyclopropoxy}methyl)phenyl]sulfanyl}-N-[2-(ethylcarbamoyl)ethyl]-N-[(2S,3R,4R,5R)-2,3,4,5,6-pentahydroxyhexyl]butanamide] |
| 126 to 1000 | COCCCN(C[C@H](O)[C@@H](O)[C@H](O)[C@H](O)CO)C(=O)CCCSc1ccc(Cl)c(COC2(c3cnccc3-c3ccccc3OC3CC3)CC2)c1 [Compound I-673, 4-{[4-chloro-3-({1-[4-(2-cyclopropoxyphenyl)pyridin-3-yl]cyclopropoxy}methyl)phenyl]sulfanyl}-N-(3-methoxypropyl)-N-[(2S,3R,4R,5R)-2,3,4,5,6-pentahydroxyhexyl]butanamide] |
| 126 to 1000 | CN(C)C(=O)CN(C[C@H](O)[C@@H](O)[C@H](O)[C@H](O)CO)C(=O)CCCSc1ccc(Cl)c(COC2(c3cnccc3-c3ccccc3OC3CC3)CC2)c1 [Compound I-674, 4-{[4-chloro-3-({1-[4-(2-cyclopropoxyphenyl)pyridin-3-yl]cyclopropoxy}methyl)phenyl]sulfanyl}-N-[(dimethylcarbamoyl)methyl]-N-[(2S,3R,4R,5R)-2,3,4,5,6-pentahydroxyhexyl]butanamide] |
| 1260 to 10000 | NC(=O)CCN(C[C@H](O)[C@@H](O)[C@H](O)[C@H](O)CO)C(=O)CCCSc1ccc(Cl)c(COC2(c3cnccc3-c3ccccc3OC3CC3)CC2)c1 [Compound I-675, N-(2-carbamoylethyl)-4-{[4-chloro-3-({1-[4-(2-cyclopropoxyphenyl)pyridin-3-yl]cyclopropoxy}methyl)phenyl]sulfanyl}-N-[(2S,3R,4R,5R)-2,3,4,5,6-pentahydroxyhexyl]butanamide] |
| < 100 | CN(C[C@H](O)[C@@H](O)[C@H](O)[C@H](O)CO)C(=O)CCSc1ccc(Cl)c(CNC2(c3cnccc3-c3ccccc3OC3CC3)CC2)c1 [Compound I-676, 3-({4-chloro-3-[({1-[4-(2-cyclopropoxyphenyl)pyridin-3-yl]cyclopropyl}amino)methyl]phenyl}sulfanyl)-N-methyl-N-[(2S,3R,4R,5R)-2,3,4,5,6-pentahydroxyhexyl]propanamide] |
| < 100 | CN(C[C@H](O)[C@@H](O)[C@H](O)[C@H](O)CO)C(=O)CCSc1ccc(Cl)c(COC2(c3cnccc3-c3ccccc3OC3CC3)CC2)c1 [Compound I-677, 3-{[4-chloro-3-({1-[4-(2-cyclopropoxyphenyl)pyridin-3-yl]cyclopropoxy}methyl)phenyl]sulfanyl}-N-methyl-N-[(2S,3R,4R,5R)-2,3,4,5,6-pentahydroxyhexyl]propanamide] |
